These results are taken from patent US9288989B2, “Synergistic weed control from applications of penoxsulam and acetochlor” (Dow AgroSciences LLC, priority 2013, dated 2016).

Where “and” joins values, the source holds several entries; their conditions need not be identical. Identical values can stand only once.

For data set [1], the system named is POLCO. As to the kind of experiment: Pre-emergence field trial, weed control, POLCO. In kind it is in vivo, Polygonum convolvulus L. The text has this: (§1) The (a) penoxsulam or an agriculturally acceptable salt thereof is mixed with or applied in combination with (b) acetochlor or an agriculturally acceptable salt thereof in an amount sufficient to induce a synergistic herbicidal effect. […] As described in the Herbicide Handbook of the Weed Science Society of America, Ninth Edition, 2007, p. 429, “‘synergism’ [is] an interaction of two or more factors such that the effect when combined is greater than the predicted effect based on the response to each factor applied separately.” Synergistic in the herbicide context can mean that the use of (a) and (b) as defined above results in an increased weed control effect compared to the weed control effects that are possible with the use of (a) or (b) alone. In some embodiments, the damage or injury to the undesired vegetation caused by the compositions and methods disclosed herein is evaluated using a scale from 0% to 100%, when compared with the untreated control vegetation, wherein 0% indicates no damage to the undesired vegetation and 100% indicates complete destruction of the undesired vegetation.
(§2) In Colby's equation, the value E corresponds to the effect (plant damage or injury) that is to be expected if the activity of the individual compounds is additive. If the observed effect is higher than the value E calculated according to the Colby equation, then a synergistic effect is present according to the Colby equation.
(§3) Field trials were conducted with applications made in the area of naturally occurring weed populations in multiple countries. The soil or water was treated prior to the emergence of target plants. All treatments were applied using a randomized complete block trial design, with 3-5 replications per treatment.
(§4) Treatments consisted of penoxsulam and acetochlor applied alone and in combination. Spray solutions were prepared using an appropriate amount of dilution to treat the area of the plots based on use rates and water volumes necessary based on a per hectare basis. Spray solutions were prepared and applied with the specified active ingredients in single and two-way combinations to be able to perform Colby synergy and safening calculations. Formulated products were applied to the soil with a backpack sprayer equipped with flat fan nozzles calibrated to deliver from 200 to 300 L/ha at a normal spray height above the soil, at spray pressures ranging from 200 to 400 kilopascals (kPa). Formulated products were applied into flooded rice paddy by calculating the area to be treated, calculating the amount of active ingredient necessary to treat the area at the specified rates, then mixing the treatments in water to apply 8 L/ha of water to the plots.
(§5) Colby's equation was used to determine the herbicidal effects expected from the mixtures, as described above. The results were measured at the evaluation intervals provided in Table 1 after the first application of the compositions. […] The herbicide tank-mix combinations tested, application rates and ratios employed, plant species tested, and results are given below.

Data set [2] concerns GALAP. Kind of data set: Pre-emergence field trial, weed control, GALAP. In kind it is in vivo, Galium aparine L.
Text: as §1, §2, §3
as §4, with “Formulated products were applied into flooded rice paddy by calculating the area to be treated, calculating the amount of active ingredient necessary to treat the area at the specified rates, then mixing the treatments in water to apply 8 L/ha of water to the plots.” left out
(§6) Colby's equation was used to determine the herbicidal effects expected from the mixtures, as described above. The results were measured at the evaluation intervals provided in Table 1 after the first application of the compositions. […]

Data set [3] concerns VIOAR. Kind of data set: Pre-emergence field trial, weed control, VIOAR. In kind it is in vivo, Viola arvensis Murr. Particulars: 61 days. Here is the method: (§7) The (a) penoxsulam or an agriculturally acceptable salt thereof is mixed with or applied in combination with (b) acetochlor or an agriculturally acceptable salt thereof in an amount sufficient to induce a synergistic herbicidal effect. […] As described in the Herbicide Handbook of the Weed Science Society of America, Ninth Edition, 2007, p. […] In some embodiments, the damage or injury to the undesired vegetation caused by the compositions and methods disclosed herein is evaluated using a scale from 0% to 100%, when compared with the untreated control vegetation, wherein 0% indicates no damage to the undesired vegetation and 100% indicates complete destruction of the undesired vegetation.
(§8) In Colby's equation, the value E corresponds to the effect (plant damage or injury) that is to be expected if the activity of the individual compounds is additive. If the observed effect is higher than the value E calculated according to the Colby equation, then a synergistic effect is present according to the Colby equation. […]
as §6

Data set [4] has as its system ECHCO. Kind of data set: Pre-emergence field trial, weed control, ECHCO. In kind it is in vivo, Echinochloa colonum (L.) Link.
Text: as §1, §2, §3, §4, §5

The subject of data set [5] is CHEAL. As to the kind of experiment: Pre-emergence field trial, weed control, CHEAL. In kind it is in vivo, Chenopodium album L.
Text: as §1, §2, §3
as §4, with “Formulated products were applied into flooded rice paddy by calculating the area to be treated, calculating the amount of active ingredient necessary to treat the area at the specified rates, then mixing the treatments in water to apply 8 L/ha of water to the plots.” left out
as §6

Data set [6] concerns CYPRO. Kind of data set: Pre-emergence field trial, weed control, CYPRO. In kind it is in vivo, Cyperus rotundus L. Particulars: 35 days. Here is the method:
as §7, §8, §6

In data set [7] the test system is corn (ZEAMX). As to the kind of experiment: Pre-emergence field trial, crop injury, corn. Particulars: in vivo. As for the experimental part:
as §7, §8
Colby's equation was used to determine the herbicidal effects expected from the mixtures, as described above. The results were measured at the evaluation intervals provided in Table 2 after the first application of the compositions. […]

In data set [8] the test system is AMARE. As to the kind of experiment: Pre-emergence field trial, weed control, AMARE. In kind it is in vivo, Amaranthus retroflexus. Particulars: 55 days. Here is the method: as §7, §8, §6
Data set [9] concerns POLPE. Kind of data set: Pre-emergence field trial, weed control, POLPE. In kind it is in vivo, Polygonum persicaria L. Particulars: 14 days. As for the experimental part: as §7, §8, §6
For data set [10], the system named is TRBSS. Kind of data set: Pre-emergence field trial, weed control, TRBSS. In kind it is in vivo, species of the genus Tribulus.
Text: as §1, §2, §3, §4, §5

Data set [11] concerns SOLNI. As to the kind of experiment: Pre-emergence field trial, weed control, SOLNI. In kind it is in vivo, Solanum nigrum.
Text: as §1, §2, §3
as §4, with “Formulated products were applied into flooded rice paddy by calculating the area to be treated, calculating the amount of active ingredient necessary to treat the area at the specified rates, then mixing the treatments in water to apply 8 L/ha of water to the plots.” left out
as §6

The subject of data set [12] is POLLA. As to the kind of experiment: Pre-emergence field trial, weed control, POLLA. In kind it is in vivo, Polygonum lapathifolium L.
Text: as §1, §2, §3, §4, §5

[13] abbreviates: 28 days, acetochlor 2300 g ai/ha.
[14] abbreviates: 64 days, acetochlor 1900 g ai/ha.

Take `CCOCN(C(=O)CCl)c1c(C)cccc1CC` [Acetochlor, 2-chloro-N-(ethoxymethyl)-N-(2-ethyl-6-methylphenyl)acetamide]: the “Mean % weed control” value in data set [1] (setting [13]) is 5% and 12.5%; in data set [2] (38 days, acetochlor 1900 g ai/ha) it was 6.67%; in data set [2] (setting [14]), 10%; in [3] (acetochlor 1400 g ai/ha), 0%; in data set [4] (20 days, acetochlor 15 g ai/ha), 22.5%; in data set [4] (35 days, acetochlor 15 g ai/ha), 15%. In addition, the “Mean % weed control” value in data set [5] (34 days, acetochlor 1400 g ai/ha) was 3.33%; in [5] (61 days, acetochlor 1400 g ai/ha), 36.67%; in data set [6] (acetochlor 15 g ai/ha), 4.25%; in data set [8] (acetochlor 2000 g ai/ha), 0%; in data set [9] (acetochlor 1400 g ai/ha), 36.67%; in [10] (35 days, acetochlor 1800 g ai/ha), 78%. Also, the “Mean % weed control” value in data set [10] (49 days, acetochlor 1800 g ai/ha) is 63%; in data set [11] (setting [14]), 13.33%; in data set [11] (92 days, acetochlor 1900 g ai/ha), 3.33%; in [12] (14 days, acetochlor 2300 g ai/ha), 20%; in data set [12] (setting [13]) it was 10% and 7.5%; in data set [12] (98 days, acetochlor 2300 g ai/ha) it was 12.5%. Also, the “Mean % crop injury” value in [7] came out at 0%.

As for `COc1cnc(OC)n2nc(NS(=O)(=O)c3c(OCC(F)F)cccc3C(F)(F)F)nc12` [Penoxsulam], the “Mean % weed control” value in [1] (14 days, penoxsulam 15 g ai/ha) is reported as 85%; in data set [1] (14 days, penoxsulam 20 g ai/ha) it was 87.5%; in [1] (28 days, penoxsulam 15 g ai/ha), 65%; in data set [1] (28 days, penoxsulam 20 g ai/ha), 77.5%; in [2] (38 days, penoxsulam 20 g ai/ha), 40%; in data set [2] (64 days, penoxsulam 20 g ai/ha), 60%. The “Mean % weed control” value in data set [3] (penoxsulam 20 g ai/ha) was 0%; in data set [4] (20 days, penoxsulam 15 g ai/ha), 38.75%; in data set [4] (20 days, penoxsulam 20 g ai/ha) it was 50%; in [4] (35 days, penoxsulam 15 g ai/ha) it was 55%; in data set [5] (34 days, penoxsulam 20 g ai/ha), 56.67%; in [5] (61 days, penoxsulam 20 g ai/ha) it was 50%. Besides, the “Mean % weed control” value stood at 39.38% in [6] (penoxsulam 20 g ai/ha); 30% in data set [8] (penoxsulam 12 g ai/ha); 80% in data set [9] (penoxsulam 20 g ai/ha); 32% in data set [10] (35 days, penoxsulam 5 g ai/ha); 38.5% in data set [10] (35 days, penoxsulam 10 g ai/ha); 13% in data set [10] (49 days, penoxsulam 5 g ai/ha). The “Mean % weed control” value was 32% in data set [10] (49 days, penoxsulam 10 g ai/ha); 40% in [11] (64 days, penoxsulam 20 g ai/ha); 30% in [11] (92 days, penoxsulam 20 g ai/ha); 85% in [12] (14 days, penoxsulam 15 g ai/ha); 75% in data set [12] (28 days, penoxsulam 15 g ai/ha); 90% in [12] (28 days, penoxsulam 20 g ai/ha). The “Mean % weed control” value in data set [12] (98 days, penoxsulam 15 g ai/ha) was 71.25%.
